Measured values published in PubChem BioAssay (NCI).
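Five concentrations, 48 hours, 96-well plates. The concentration for 50% growth inhibition is given as GI50. TGI denotes the concentration required for complete inhibition of growth.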

Columns and labels:
Assay in all cases: NCI-60 cell line screen, 48 h
COLO 205 colon = tested on: COLO 205 colon
HL-60(TB) leukemia = tested on: HL-60(TB) leukemia
HT29 colon = tested on: HT29 colon
MOLT-4 leukemia = tested on: MOLT-4 leukemia
NCI-H226 lung = tested on: NCI-H226 lung
NCI-H460 lung = tested on: NCI-H460 lung
RPMI-8226 leukemia = tested on: RPMI-8226 leukemia
U251 CNS = tested on: U251 CNS
UACC-62 melanoma = tested on: UACC-62 melanoma
HOP-92 NSCLC = tested on: HOP-92 NSCLC

Row | Structure (SMILES) | TGI (COLO 205 colon) [µM] | TGI (HL-60(TB) leukemia) [µM] | TGI (HT29 colon) [µM] | TGI (MOLT-4 leukemia) [µM] | TGI (NCI-H226 lung) [µM] | TGI (NCI-H460 lung) [µM] | TGI (RPMI-8226 leukemia) [µM] | TGI (U251 CNS) [µM] | TGI (UACC-62 melanoma) [µM] | TGI (HOP-92 NSCLC) [µM] | GI50 (COLO 205 colon) [µM] | GI50 (HL-60(TB) leukemia) [µM] | GI50 (HOP-92 NSCLC) [µM] | GI50 (HT29 colon) [µM] | GI50 (MOLT-4 leukemia) [µM] | GI50 (NCI-H226 lung) [µM] | GI50 (NCI-H460 lung) [µM] | GI50 (RPMI-8226 leukemia) [µM] | GI50 (U251 CNS) [µM] | GI50 (UACC-62 melanoma) [µM]
1 | CC(C)CCC[C@@H](C)C1CCC2[C@@H]3CC=C4C[C@@H](C(=O)NCC[N+](C)(C)CCCS(=O)(=O)[O-])CC[C@]4(C)C3CC[C@@]21C (stereo partly specified) | 31.9 | 28.3 | 33 | 35.1 | 37.9 | 30.6 | 41.5 | 31.2 | 34.7 | – | – | – | – | – | – | – | – | – | – | –
2 | O=C(O)CNc1ccc(C(=O)O)cc1 | > 100 | > 100 | > 100 | > 100 | > 100 | > 100 | > 100 | > 100 | > 100 | > 100 | – | – | – | – | – | – | – | – | – | –
3 | S=P1(N2CCCCC2)Oc2ccc3ccccc3c2-c2c(ccc3ccccc23)O1 | > 100 | > 100 | > 100 | > 100 | > 100 | > 91.6 | > 100 | > 100 | > 100 | > 100 | – | – | – | – | – | – | – | – | – | –
4 | O=[N+]([O-])c1ccccc1NC1c2ccccc2Oc2ccccc21 | > 100 | 7.09 | > 100 | > 100 | > 100 | > 100 | > 100 | > 100 | > 100 | > 100 | 3.59 | 2.8 | 4.22 | 3.83 | 5.03 | 5.91 | 3.87 | 5.86 | 4.88 | 2.94
5 | Cc1ccc([N+](=O)[O-])cc1S(=O)(=O)Nc1ccc(C2=NNC(c3ccccc3O)C2)cc1 (stereo unspecified) | 65.5 | 61.8 | > 100 | 96.3 | > 100 | 80.6 | > 100 | – | 41.6 | > 100 | – | – | – | – | – | – | – | – | – | –
6 | CN1CCCCC(C#N)(c2ccccc2)CC1 (stereo unspecified) | > 100 | > 100 | > 100 | > 100 | – | > 100 | > 100 | > 100 | – | > 100 | – | – | – | – | – | – | – | – | – | –
7 | N=C(N)c1ccc(-c2ccc(-c3ccccc3)s2)cc1 | – | – | – | – | 14.6 | – | – | – | 3.42 | 3.34 | – | – | 1.55 | – | – | 3.01 | – | – | – | 1.75
8 | CC(=O)Oc1ccc2c(c1)oc1c3ccc(OC(C)=O)cc3n(C)c(=O)c21 | > 100 | – | > 100 | > 100 | 53.1 | > 100 | – | > 100 | > 100 | > 100 | – | – | – | – | – | – | – | – | – | –
9 | C=C1C(=O)C[C@@]23CCC[C@@]12CC(OCOC)C3 (stereo partly specified) | 14.6 | 4.76 | 4.41 | 9.93 | 4.66 | 13.2 | 9.8 | 21 | 7.62 | 7.43 | – | – | – | – | – | – | – | – | – | –
10 | N=c1c2c(=S)n(-c3ccccc3)c(=S)n(-c3ccccc3)c2nc(SCCCN2CCN(c3cccc(Cl)c3)CC2)n1-c1ccccc1 | > 100 | > 100 | – | > 100 | > 100 | > 100 | > 100 | > 100 | > 100 | > 100 | – | – | – | – | – | – | – | – | – | –
11 | Cc1cc(C)c2c(c1)CC1(Cc3c(C)ccc(C)c3C1=O)C2=O (stereo unspecified) | > 100 | > 100 | – | > 100 | > 100 | > 100 | > 100 | > 100 | > 100 | > 100 | – | – | – | – | – | – | – | – | – | –
12 | CCCCCCCC/C=C\CCCCCCCC(=O)O | > 500 | 290 | > 500 | 331 | 227 | 192 | 277 | 231 | 351 | > 5 | – | – | – | – | – | – | – | – | – | –
13 | COC(=O)c1cccc(N[C@@H]2c3cc4c(cc3C(c3cc(OC)c(O)c(OC)c3)[C@H]3C(=O)OCC32)OCO4)c1 (stereo partly specified) | 5.5 | 1.1 | 16 | 1.36 | 3.6 | 2.24 | > 20.2 | 12.2 | 8.28 | 7.14 | – | – | – | – | – | – | – | – | – | –
14 | CCN(CC)CCCNc1ncc(C)c2[nH]c3ccncc3c12 | 22.6 | > 31.6 | 26.2 | 18.4 | 20.3 | 15.6 | > 100 | 30.6 | 28.2 | 26.3 | – | – | – | – | – | – | – | – | – | –
15 | COc1cc(/C=C/c2cc(/C=C/c3ccc(O)c(OC)c3)nc(N)n2)ccc1O | 3.24 | 6.17 | 0.948 | 5.19 | 4.34 | 5.2 | 4.18 | 5.69 | – | 5.19 | 1.8 | 2.18 | 1.26 | 0.314 | 1.01 | 1.83 | 2.05 | 1.29 | 1.79 | –
16 | O=C(O)CS | > 100 | > 100 | > 100 | > 100 | > 100 | > 100 | > 100 | > 100 | > 100 | > 100 | – | – | – | – | – | – | – | – | – | –
